# Test results reported in PubChem BioAssay (NCI).
#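 Step 1: Grow cells in 96-well plates. Step 2: Expose to compound for 48 hours at 5 concentrations. Step 3: Interpolate endpoints linearly; if unreached, use highest concentration. The concentration for 50% growth inhibition is given as GI50. At the TGI there is no net growth.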
# What was measured:
# Assay in all cases: NCI tumour cell line growth inhibition, 48 h
# 786-0 renal = tested on: 786-0 renal
# NCI-H23 lung = tested on: NCI-H23 lung
# HOP-62 NSCLC = tested on: HOP-62 NSCLC
# MCF7 breast = tested on: MCF7 breast
# HL-60(TB) leukemia = tested on: HL-60(TB) leukemia
# HCT-15 colon = tested on: HCT-15 colon
# COLO 205 colon = tested on: COLO 205 colon
# HT29 colon = tested on: HT29 colon
# UO-31 renal = tested on: UO-31 renal
# U251 CNS = tested on: U251 CNS
# RPMI-8226 leukemia = tested on: RPMI-8226 leukemia
# NCI-H460 lung = tested on: NCI-H460 lung
# SN12C renal = tested on: SN12C renal
# T-47D breast = tested on: T-47D breast
# BT-549 breast = tested on: BT-549 breast
# SK-MEL-2 melanoma = tested on: SK-MEL-2 melanoma
# RXF 393 renal = tested on: RXF 393 renal
# CAKI-1 renal = tested on: CAKI-1 renal
# HOP-92 NSCLC = tested on: HOP-92 NSCLC
# IGROV1 ovarian = tested on: IGROV1 ovarian
# SF-295 CNS = tested on: SF-295 CNS
# OVCAR-3 ovarian = tested on: OVCAR-3 ovarian
# SNB-75 CNS = tested on: SNB-75 CNS
# HCC-2998 colon = tested on: HCC-2998 colon
# MALME-3M melanoma = tested on: MALME-3M melanoma
# SF-539 CNS = tested on: SF-539 CNS
# HCT-116 colon = tested on: HCT-116 colon
# SK-MEL-28 melanoma = tested on: SK-MEL-28 melanoma
# M14 melanoma = tested on: M14 melanoma
compound,measurement,setting,value
CC(C)C[C@H](NC(=O)CNC(=O)c1cc(Cl)ccc1Cl)B1OC(=O)CC(CC(=O)O)(C(=O)O)O1 (stereo not given in full),GI50,786-0 renal,65.5 nM
same,GI50,NCI-H23 lung,48 nM
same,TGI,NCI-H23 lung,6.44 µM
same,GI50,HOP-62 NSCLC,124 nM
same,TGI,HOP-62 NSCLC,1050 nM
same,GI50,MCF7 breast,39.1 nM
same,TGI,MCF7 breast,43.1 µM
same,GI50,HL-60(TB) leukemia,53.3 nM
same,TGI,HL-60(TB) leukemia,> 100 µM
same,GI50,HCT-15 colon,57.8 nM
same,TGI,HCT-15 colon,5.98 µM
same,GI50,COLO 205 colon,86.8 nM
same,TGI,COLO 205 colon,22.3 µM
same,GI50,HT29 colon,32.7 nM
same,TGI,HT29 colon,141 nM
same,GI50,UO-31 renal,58.6 nM
same,TGI,UO-31 renal,2000 nM
same,GI50,U251 CNS,87.4 nM
same,TGI,U251 CNS,5.64 µM
same,GI50,RPMI-8226 leukemia,32.1 nM
same,GI50,NCI-H460 lung,231 nM
same,GI50,SN12C renal,86.2 nM
same,TGI,SN12C renal,982 nM
same,GI50,T-47D breast,28.5 nM
same,TGI,T-47D breast,81.9 nM
same,GI50,BT-549 breast,32.4 nM
same,TGI,BT-549 breast,126 nM
same,GI50,SK-MEL-2 melanoma,39.9 nM
same,TGI,SK-MEL-2 melanoma,239 nM
same,GI50,RXF 393 renal,19.3 nM
same,TGI,RXF 393 renal,43.8 nM
same,GI50,CAKI-1 renal,41 nM
same,TGI,CAKI-1 renal,4.48 µM
same,GI50,HOP-92 NSCLC,21.9 nM
same,TGI,HOP-92 NSCLC,173 nM
same,GI50,IGROV1 ovarian,231 nM
same,TGI,IGROV1 ovarian,> 41.8 µM
same,GI50,SF-295 CNS,71 nM
same,TGI,SF-295 CNS,1140 nM
same,GI50,OVCAR-3 ovarian,26.9 nM
same,TGI,OVCAR-3 ovarian,79.1 nM
same,GI50,SNB-75 CNS,182 nM
same,TGI,SNB-75 CNS,504 nM
same,GI50,HCC-2998 colon,32.6 nM
same,TGI,HCC-2998 colon,105 nM
same,GI50,MALME-3M melanoma,32.9 nM
same,TGI,MALME-3M melanoma,412 nM
same,GI50,SF-539 CNS,23 nM
same,TGI,SF-539 CNS,52.8 nM
same,GI50,HCT-116 colon,26.7 nM
same,TGI,HCT-116 colon,71.1 nM
same,GI50,SK-MEL-28 melanoma,34.5 nM
same,TGI,SK-MEL-28 melanoma,191 nM
same,GI50,M14 melanoma,34 nM
same,TGI,M14 melanoma,143 nM
